The values that follow come from DBAASP.

The structures appear in SMILES notation. Converted amounts (≈) assume the structure as drawn.

By MIC is commonly meant the lowest concentration found to suppress growth. A higher MIC goes with a less susceptible organism.

Holding throughout (assay): ≥ marks a high value that may be exact or a test limit, other limits are often not marked, values filed in µg/mL are converted to µM
For experiment [1], the system named is Pseudomonas aeruginosa H1001.
The subject of experiment [2] is Staphylococcus epidermidis ATCC 12228.
Experiment [3] has as its system Micrococcus luteus ATCC 4698.
The subject of experiment [4] is Escherichia coli DH5alpha.
Experiment [5] relates to Staphylococcus aureus ATCC 6538.
For experiment [6], the system named is Escherichia coli W160-37.
Experiment [7] concerns Pseudomonas aeruginosa ATCC 27853.
In experiment [8] the test system is Staphylococcus aureus.
The subject of experiment [9] is Acinetobacter baumannii.
The subject of experiment [10] is Escherichia coli ATCC 25922.
Experiment [11] concerns Escherichia coli.
Experiment [12] deals with Staphylococcus aureus MR.
For experiment [13], the system named is Pseudomonas aeruginosa.
The test system of experiment [14] is Klebsiella pneumoniae.
Experiment [15] concerns Staphylococcus aureus ATCC 29213.
The subject of experiment [16] is Klebsiella pneumoniae ATCC 13883.
Experiment [17] deals with Acinetobacter baumannii ATCC 19606.
For experiment [18], the system named is Enterococcus faecium CGMCC 1.2334.
The test system of experiment [19] is Lactococcus lactis AS1.1690.
Experiment [20] concerns Staphylococcus aureus AS1.72.
For experiment [21], the system named is Enterococcus faecalis CGMCC 1.595.
For experiment [22], the system named is Escherichia coli AS1.349.
For experiment [23], the system named is Pseudomonas aeruginosa CGMCC 1.860.
The subject of experiment [24] is Bacillus cereus AS1.126.

In [1], `CC[C@H](C)[C@H](NC(=O)[C@H](C)N)C(=O)N[C@@H](CCCCN)C(=O)N[C@@H](CC(C)C)C(=O)N[C@@H](CC(C)C)C(=O)N[C@@H](CS)C(=O)N[C@@H](CCCN=C(N)N)C(=O)N[C@H](C(=O)N[C@@H](Cc1cnc[nH]1)C(=O)N[C@@H](CCCCN)C(=O)O)C(C)C` [AIKLLCRVHK] gave an MIC of no less than 42.4 µM.

`CC[C@H](C)[C@H](NC(=O)[C@H](C)NC(=O)[C@@H](NC(=O)[C@H](CCCCN)NC(=O)[C@H](CCCCN)NC(=O)[C@H](Cc1cnc[nH]1)NC(=O)[C@@H](NC(=O)[C@H](CCCN=C(N)N)NC(=O)[C@@H](N)CS)C(C)C)[C@@H](C)CC)C(=O)N[C@@H](CO)C(=O)O` [CRVHKKIAIS] returned an MIC in [1] of no less than 173 µM.

`CC(C)C[C@H](NC(=O)[C@H](CC(C)C)NC(=O)[C@H](CCCCN)NC(=O)[C@H](CO)NC(=O)[C@H](CC(C)C)NC(=O)[C@H](C)NC(=O)[C@H](CCCCN)NC(=O)[C@H](C)NC(=O)[C@H](CC(C)C)NC(=O)[C@H](C)NC(=O)CNC(=O)[C@H](CC(C)C)NC(=O)[C@@H](N)Cc1ccccc1)C(=O)O` [FLGALAKALSKLL]: the MIC in experiment [2] is 35.7 µM (≈ 48 µg/mL); in experiment [3], 11.9 µM (≈ 16 µg/mL); in experiment [4], no less than 74.4 µM; in experiment [5], 20.8 µM (≈ 28 µg/mL).

On to `CC(C)C[C@H](NC(=O)[C@@H](NC(=O)[C@H](CCCCN)NC(=O)[C@H](CO)NC(=O)[C@H](CC(C)C)NC(=O)[C@H](C)NC(=O)[C@H](CCCCN)NC(=O)[C@H](Cc1ccccc1)NC(=O)[C@H](CC(C)C)NC(=O)[C@H](C)NC(=O)CNC(=O)[C@H](CC(C)C)NC(=O)[C@@H](N)Cc1ccccc1)C(C)C)C(=O)O` [FLGALFKALSKVL], for which the MIC is 11.4 µM (≈ 16 µg/mL) in experiment [2], 5.69 µM (≈ 8 µg/mL) in experiment [3], 28.4 µM (≈ 40 µg/mL) in experiment [4] and 9.24 µM (≈ 13 µg/mL) in experiment [5].

`CC[C@H](C)[C@H](NC(=O)[C@H](CCCCN)NC(=O)[C@H](CCCN=C(N)N)NC(=O)[C@@H]1CCCN1C(=O)[C@@H](NC(=O)[C@H](CC(C)C)NC(=O)[C@H](CC(C)C)NC(=O)[C@H](CC(C)C)NC(=O)[C@@H](N)Cc1ccccc1)[C@@H](C)CC)C(=O)N[C@H](C(=O)N[C@H](C(=O)N[C@@H](C)C(=O)N[C@@H](CC(C)C)C(N)=O)[C@@H](C)O)C(C)C` [FLLLIPRKIVTAL] showed an MIC in [6] of no less than 93.5 µM.

For `CC(C)C[C@H](NC(=O)[C@@H](N)Cc1ccccc1)C(=O)N1CCC[C@H]1C(=O)N[C@@H](CCCCN)C(=O)N[C@@H](CCCCN)C(=O)N[C@@H](Cc1ccccc1)C(=O)N[C@@H](CCCN=C(N)N)C(=O)N[C@@H](Cc1c[nH]c2ccccc12)C(=O)N[C@@H](Cc1c[nH]c2ccccc12)C(=O)N[C@@H](CCCCN)C(=O)N[C@@H](Cc1ccc(O)cc1)C(=O)N[C@@H](CCCN=C(N)N)C(=O)N[C@@H](CCCCN)C(N)=O` [FLPKKFRWWKYRK], the MIC in experiment [1] came out at 8.5 µM (≈ 16 µg/mL). This counts as single-digit micromolar.

Consider `CC[C@H](C)[C@H](NC(=O)CN)C(=O)N[C@@H](CCCCN)C(=O)N[C@@H](CCCCN)C(=O)N[C@@H](Cc1c[nH]c2ccccc12)C(=O)N[C@H](C(=O)N[C@@H](CCCCN)C(=O)NCC(=O)N[C@H](C(=O)N[C@@H](C)C(=O)N[C@@H](CCCCN)C(=O)NCC(=O)N[C@H](C(=O)N[C@@H](C)C(=O)N[C@@H](CCCCN)C(=O)N[C@@H](CC(=O)O)C(=O)N[C@@H](CC(C)C)C(=O)N[C@@H](C)C(=O)N[C@@H](CCCCN)C(=O)N[C@@H](CCCCN)C(=O)N[C@H](C(=O)N[C@@H](CC(C)C)C(N)=O)[C@@H](C)CC)C(C)C)C(C)C)C(C)C` [GIKKWVKGVAKGVAKDLAKKIL], for which the MIC in experiment [7] was determined as 2 µM (≈ 4.7 µg/mL); in experiment [8], 1 µM (≈ 2.35 µg/mL); in [9], 0.707 µM (≈ 1.66 µg/mL); in [10], 0.177 µM (≈ 0.415 µg/mL); in experiment [11], 0.25 µM (≈ 0.587 µg/mL); in experiment [12], 4 µM (≈ 9.4 µg/mL). Besides, the MIC is 2.83 µM (≈ 6.65 µg/mL) in [13]; 2.83 µM (≈ 6.65 µg/mL) in experiment [14]; 0.354 µM (≈ 0.831 µg/mL) in experiment [15]; 0.707 µM (≈ 1.66 µg/mL) in [16]; 0.707 µM (≈ 1.66 µg/mL) in experiment [17].

Compound `CC[C@H](C)[C@H](N)C(=O)N[C@H](C(=O)N[C@@H](CO)C(=O)N[C@H](C(=O)N[C@H](C(=O)NCC(=O)N[C@@H](CC(=O)O)C(=O)N[C@@H](CC(C)C)C(=O)N[C@H](C(=O)N[C@@H](CCCCN)C(=O)N[C@@H](Cc1c[nH]c2ccccc12)C(=O)N[C@H](C(=O)N[C@H](C(=O)N[C@@H](CCCCN)C(=O)N[C@H](C(=O)N[C@H](C(=O)O)C(C)C)[C@@H](C)O)[C@@H](C)CC)[C@@H](C)CC)C(C)C)[C@@H](C)CC)[C@@H](C)O)[C@@H](C)CC` [IISTIGDLVKWIIKTV] registered an MIC in experiment [6] of no less than 35 µM.

Turning to `CC[C@H](C)[C@H](N)C(=O)N[C@H](C(=O)N[C@@H](CO)C(=O)N[C@H](C(=O)N[C@H](C(=O)NCC(=O)N[C@@H](CCCCN)C(=O)N[C@@H](CC(C)C)C(=O)N[C@H](C(=O)N[C@@H](CCCCN)C(=O)N[C@@H](Cc1c[nH]c2ccccc12)C(=O)N[C@H](C(=O)N[C@H](C(=O)N[C@@H](CCCCN)C(=O)N[C@H](C(=O)N[C@H](C(=O)O)C(C)C)[C@@H](C)O)[C@@H](C)CC)[C@@H](C)CC)C(C)C)[C@@H](C)CC)[C@@H](C)O)[C@@H](C)CC` [IISTIGKLVKWIIKTV], the MIC in [8] is 3.46 µM (≈ 6.28 µg/mL); in experiment [6] it was 3 µM (≈ 5.44 µg/mL).

The compound `CC[C@H](C)[C@H](NC(=O)[C@H](CCSC)NC(=O)[C@H](Cc1c[nH]c2ccccc12)NC(=O)[C@H](Cc1c[nH]c2ccccc12)NC(=O)[C@H](CC(C)C)NC(=O)[C@@H](N)CCCCN)C(=O)N[C@@H](CCCN=C(N)N)C(=O)N[C@@H](CCCN=C(N)N)C(=O)N[C@@H](Cc1c[nH]c2ccccc12)C(=O)O` [KLWWMIRRW] yielded an MIC in experiment [1] of 5.82 µM (≈ 8 µg/mL).

The compound `CC(C)C[C@@H]1NC(=O)[C@H](CCCN=C(N)N)NC(=O)[C@H](Cc2cnc[nH]2)NC(=O)[C@H](Cc2c[nH]c3ccccc23)NC(=O)CNC(=O)CNC(=O)[C@@H](NC(=O)[C@H](Cc2ccc(O)cc2)NC(=O)CNC(=O)CNC(=O)[C@@H](N)CO)CSSC[C@@H](C(=O)O)NC(=O)[C@H](CCCN=C(N)N)NC1=O` [SGGYCGGWHRLRC] gave an MIC in [3] of 17 µM (≈ 24.6 µg/mL). This lies in the double-digit micromolar range.

In experiment [3], `C[C@@H](O)[C@H](NC(=O)[C@@H]1CSSC[C@H](NC(=O)[C@H](Cc2ccc(O)cc2)NC(=O)CNC(=O)CNC(=O)[C@@H](N)CO)C(=O)NCC(=O)NCC(=O)N[C@@H](Cc2c[nH]c3ccccc23)C(=O)N[C@@H](CCCCN)C(=O)N[C@@H](CCCN=C(N)N)C(=O)N[C@@H](CCCCN)C(=O)N[C@@H](CCCN=C(N)N)C(=O)N1)C(=O)N[C@@H](CO)C(=O)N[C@@H](Cc1ccc(O)cc1)C(=O)N[C@@H](CCCN=C(N)N)C(=O)N[C@@H](CO)C(=O)NCC(=O)O` [SGGYCGGWKRKRCTSYRSG] showed an MIC of 12 µM (≈ 25.3 µg/mL).

In experiment [1], `CC[C@H](C)[C@H](NC(=O)[C@H](CCCN=C(N)N)NC(=O)[C@H](CCCN=C(N)N)NC(=O)[C@@H]1CCCN1C(=O)[C@@H]1CCCN1C(=O)[C@H](CCCN=C(N)N)NC(=O)[C@@H]1CCCN1C(=O)[C@H](CCCN=C(N)N)NC(=O)[C@@H]1CCCN1C(=O)[C@H](CC(C)C)NC(=O)[C@H](Cc1ccc(O)cc1)NC(=O)[C@@H]1CCCN1C(=O)[C@@H]1CCCN1C(=O)[C@H](CCCCN)NC(=O)[C@H](CCCN=C(N)N)NC(=O)[C@@H](N)C(C)C)C(=O)N[C@@H](Cc1ccc(O)cc1)C(=O)N[C@@H](CC(N)=O)C(=O)N[C@@H](CCCN=C(N)N)C(=O)NCC(=O)O` [VRKPPYLPRPRPPRRIYNRG] gave an MIC of 0.0362 µM (≈ 0.0901 µg/mL).

On to `CC(C)[C@H](N)C(=O)N[C@@H](Cc1c[nH]c2ccccc12)C(=O)N[C@@H](CCCN=C(N)N)C(=O)N[C@@H](Cc1cnc[nH]1)C(=O)N[C@@H](Cc1c[nH]c2ccccc12)C(=O)O` [VWRHW], for which the MIC in experiment [18], in experiment [19], in experiment [20], in experiment [21], in experiment [22] and in experiment [23] was no less than 100 µM each time. In experiment [24], this compound registered an MIC of no less than 100 µM.
